According to patent publication US7425433B2, “Carboxylic acid reductase polypeptide, nucleotide sequence encoding same and methods of use” (priority 2003, dated 2008):
Where two headings read alike, the source gives them in different places.

Legend:
[1] = target: T1, carboxylic acid reductase (CAR) (Nocardia iowensis, UniProt Q6RKB1, L218S); type: biochemical, Nocardia sp. NRRL 5646; conditions: for Km: cofactors of purified HAT-CAR, Cleland's kinetics program; for Specific activity: 25° C.
T1 construct: made in house; host or cells: E. coli BL21-CodonPlus(DE3)-RP carrying pHAT-305
Experimental: Enzyme assay. The standard reaction mixture contained 1 mM ATP, 0.15 mM NADPH, 5 mM sodium benzoate, 10 mM MgCl2 and enzyme in 0.05 M Tris buffer (pH 7.5) containing 1 mM EDTA, 1 mM DTT and 10% glycerol (vol/vol), in a final volume of 1.4 ml. The reference cuvette contained all components except benzoate. Reactions were initiated by adding enzyme, and were monitored by recording the absorption decrease at 340 nm at 25° C. with a Shimadzu UV-2010PC scanning spectrophotometer. One unit of the enzyme was defined as the amount of enzyme that catalyzed the reduction of 1 µmol of benzoate to benzaldehyde.min^−1 under standard assay condition. Protein concentrations were measured by the Bradford protein microassay (4) with bovine serum albumin as the standard.

[2] = system: E. coli BL21-CodonPlus(DE3)-RP carrying pHAT-305; experiment: In vivo whole cell reactions; type: cell-based; conditions: IPTG-induced cultures, 1 mg/ml substrate acid
Experimental: In vivo whole cell reactions were typically conducted with 100 ml cultures of E. coli BL21-CodonPlus®(DE3)-RP carrying pHAT-305. Cultures were induced by 1 mM IPTG for 4 hrs before receiving 1 mg/ml of benzoic acid, vanillic acid, or ferulic acid.
Samples of approximately 2 mL were removed at various time intervals, sample pH was adjusted to pH 2.0 with 6N HCl, and samples were extracted with 1 ml ethyl acetate, and centrifuged for 2 min at 1,000×g. Organic phases were removed and used to spot silica gel GF254 TLC plates for analysis, and comparison with authentic standards of benzaldehyde, vanillin and coniferaldehyde. For metabolite isolation, reactions were stopped by adjustment of mixtures to pH 2.0 with 6N HCl, and extracted three times with half-volumes of ethyl acetate. After removal of solvent by rotary evaporation, reduction products were purified by preparative TLC for analysis and comparison with authentic standards.

Molecule	Km [1]	in vivo transformation by whole cells [2]	other results
Nc1ncnc2c1ncn2[C@@H]1O[C@H](COP(=O)(O)OP(=O)(O)OP(=O)(O)O)[C@@H](O)[C@H]1O [ATP]	69 ± 6.6 µM		
COc1cc(C=O)ccc1O [vanillin]		converted to their corresponding alcohols	
COc1cc(/C=C/C=O)ccc1O [coniferyl aldehyde]		converted to their corresponding alcohols	
NC(=O)C1=CN([C@@H]2O[C@H](COP(=O)(O)OP(=O)(O)OC[C@H]3O[C@@H](n4cnc5c(N)ncnc54)[C@H](OP(=O)(O)O)[C@@H]3O)[C@@H](O)[C@H]2O)C=CC1 [NADPH]	57 ± 3.6 µM		
O=C(O)c1ccccc1 [benzoate, benzoic acid]		quickly converted to benzyl alcohol	
HAT-CAR: HAT-tagged recombinant Nocardia carboxylic acid reductase fusion protein expressed in E. coli from pHAT-305 (protein, left off: small tags and cut ends) AVDSPDERLQRRIAQLFAEDEQVKAARPLEAVSAAVSAPGMRLAQIAATVMAGYADRPAAGQRAFELNTDDATGRTSLRLLPRFETITYRELWQRVGEVAAAWHHDPENPLRAGDFVALLGFTSIDYATLDLADIHLGAVTVPLQASAAVSQLIAILTETSPRLLASTPEHLDAAVECLLAGTTPERLVVFDYHPEDDDQRAAFESARRRLADAGSSVIVETLDAVRARGRDLPAAPLFVPDTDDDPLALLIYTSGSTGTPKGAMYTNRLAATMWQGNSMLQGNSQRVGINLNYMPMSHIAGRISLFGVLARGGTAYFAAKSDMSTLFEDIGLVRPTEIFFVPRVCDMVFQRYQSELDRRSVAGADLDTLDREVKADLRQNYLGGRFLVAVVGSAPLAAEMKTFMESVLDLPLHDGYGSTEAGASVLLDNQIQRPPVLDYKLVDVPELGYFRTDRPHPRGELLLKAETTIPGYYKRPEVTAEIFDEDGFYKTGDIVAELEHDRLVYVDRRNNVLKLSQGEFVTVAHLEAVFASSPLIRQIFIYGSSERSYLLAVIVPTDDALRGRDTATLKSALAESIQRIAKDANLQPYEIPRDFLIETEPFTIANGLLSGIAKLLRPNLKERYGAQLEQMYTDLATGQADELLALRREAADLPVLETVSRAAKAMLGVASADMRPDAHFTDLGGDSLSALSFSNLLHEIFGVEVPVGVVVSPANELRDLANYIEAERNSGAKRPTFTSVHGGGSEIRAADLTLDKFIDARTLAAADSIPHAPVPAQTVLLTGANGYLGRFLCLEWLERLDKTGGTLICVVRGSDAAAARKRLDSAFDSGDPGLLEHYQQLAARTLEVLAGDIGDPNLGLDDATWQRLAETVDLIVHPAALVNHVLPYTQLFGPNVVGTAEIVRLAITARRKPVTYLSTVGVADQVDPAEYQEDSDVREMSAVRVVRESYANGYGNSKWAGEVLLREAHDLCGLPVAVFRSDMILAHSRYAGQLNVQDVFTRLILSLVATGIAPYSFYRTDADGNRQRAHYDGLPADFTAAAITALGIQATEGFRTYDVLNPYDDGISLDEFVDWLVESGHPIQRITDYSDWFHRFETAIRALPEKQRQASVLPLLDAYRNPCPAVRGAILPAKEFQAAVQTAKIGPEQDIPHLSAPLIDKYVSDLELLQLL			Specific activity ([1]; purification step: Crude extract): 0.009 U/mg; Specific activity ([1]; purification step: DEAE Sepharose): 0.09 U/mg; Specific activity ([1]; purification step: Talon Matrix): 0.066 U/mg; specific CAR activity ([1]; purified HAT-CAR): 0.11 μmol.min^−1.mg-^−1 protein; Vmax ([1]; purified recombinant HAT-CAR): 0.135±0.004 μmol.min^−1.mg^−1 protein
